The record followed here is patent US20250170248A1, “SMARCA DEGRADERS AND USES THEREOF” (Kymera Therapeutics, Inc., priority 2021, published 2025).

Common to all, as to type: cell-based
For assay [1], the target named is T1, SMARCA2 (Homo sapiens, UniProt P51531). The assay can be described thus: MSD SMARCA2 degradation in A549 cell line. Conditions: for Dmax: A549, A549 cells; for Dmax / DC50: 24 h; for DC50 / SMARCA2 MSD A549 degradation 24 h: Average Dmax %: A549 cells; for DC50: read-out: SMARCA2 MSD A549 degradation 24 h: Average external-Abs DC50. A digest of the protocol: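 A549 cells treated 24 h with compound, 3-fold series from 1000 nM. Lysates captured on MSD plates and SMARCA2 quantified with anti-SMARCA2 and SULFO-TAG secondary antibodies (electrochemiluminescence). DC50 and Dmax (% degradation at 24 h) reported as letter bins.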

The target of assay [2] is T1, SMARCA2. Briefly: SMARCA2 Western blot degradation in MV4-11 cells. Conditions: for Dmax: MV4-11, MV4-11 cells, read-out: SMARCA2 MSD MV411 degradation 24 h: average Dmax %; for Dmax / DC50 / SMARCA2 MSD MV411 degradation 24 h: average Dmax %: 24 h; for DC50 / Selectivity in MV411 / SMARCA2 MSD MV411 degradation 24 h: average Dmax %: MV4-11 cells; for DC50: read-out: SMARCA2 MSD MV411 degradation 24 h: Mean external-Abs DC50; for Selectivity in MV411: SMARCA2/4 selectivity. Set-up: SMARCA2/SMARCA4 protein degradation selectivity in MV4-11 cells; endogenous in cells; host or cells: MV4-11. In general terms: A western blot detects proteins with antibodies after separation by electrophoresis.

For a further assay, the target named is T2, SMARCA4 (Homo sapiens, UniProt P51532).
T2 construct: SMARCA2/SMARCA4 protein degradation selectivity in MV4-11 cells; endogenous in cells; host or cells: MV4-11
Briefly: SMARCA4 Western blot degradation in MV4-11 cells. Conditions: for Dmax: MV4-11, MV4-11 cells, read-out: SMARCA4 MSD MV411 degradation 24 h: average Dmax %; for Dmax / DC50: 24 h; for DC50 / SMARCA4 MSD MV411 degradation 24 h: average Dmax %: MV4-11 cells; for DC50: read-out: SMARCA4 MSD MV411 degradation 24 h: Mean external-Abs DC50. A digest of the protocol: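 MV4-11 cells (4×10^6/well) treated with compound for 24 h, lysed in RIPA with protease/phosphatase inhibitors, and SMARCA2, SMARCA4 and beta-actin detected by Western blot with LI-COR readout. Values reported as letter-coded DC50, 24 h Dmax % and SMARCA2/4 selectivity fold.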

Some results are limits rather than exact numbers.

Usually Dmax stands for the largest share of the target that was removed. Broadly, the DC50 is the concentration giving 50% degradation.

T2 sequence (P51532 whole entry): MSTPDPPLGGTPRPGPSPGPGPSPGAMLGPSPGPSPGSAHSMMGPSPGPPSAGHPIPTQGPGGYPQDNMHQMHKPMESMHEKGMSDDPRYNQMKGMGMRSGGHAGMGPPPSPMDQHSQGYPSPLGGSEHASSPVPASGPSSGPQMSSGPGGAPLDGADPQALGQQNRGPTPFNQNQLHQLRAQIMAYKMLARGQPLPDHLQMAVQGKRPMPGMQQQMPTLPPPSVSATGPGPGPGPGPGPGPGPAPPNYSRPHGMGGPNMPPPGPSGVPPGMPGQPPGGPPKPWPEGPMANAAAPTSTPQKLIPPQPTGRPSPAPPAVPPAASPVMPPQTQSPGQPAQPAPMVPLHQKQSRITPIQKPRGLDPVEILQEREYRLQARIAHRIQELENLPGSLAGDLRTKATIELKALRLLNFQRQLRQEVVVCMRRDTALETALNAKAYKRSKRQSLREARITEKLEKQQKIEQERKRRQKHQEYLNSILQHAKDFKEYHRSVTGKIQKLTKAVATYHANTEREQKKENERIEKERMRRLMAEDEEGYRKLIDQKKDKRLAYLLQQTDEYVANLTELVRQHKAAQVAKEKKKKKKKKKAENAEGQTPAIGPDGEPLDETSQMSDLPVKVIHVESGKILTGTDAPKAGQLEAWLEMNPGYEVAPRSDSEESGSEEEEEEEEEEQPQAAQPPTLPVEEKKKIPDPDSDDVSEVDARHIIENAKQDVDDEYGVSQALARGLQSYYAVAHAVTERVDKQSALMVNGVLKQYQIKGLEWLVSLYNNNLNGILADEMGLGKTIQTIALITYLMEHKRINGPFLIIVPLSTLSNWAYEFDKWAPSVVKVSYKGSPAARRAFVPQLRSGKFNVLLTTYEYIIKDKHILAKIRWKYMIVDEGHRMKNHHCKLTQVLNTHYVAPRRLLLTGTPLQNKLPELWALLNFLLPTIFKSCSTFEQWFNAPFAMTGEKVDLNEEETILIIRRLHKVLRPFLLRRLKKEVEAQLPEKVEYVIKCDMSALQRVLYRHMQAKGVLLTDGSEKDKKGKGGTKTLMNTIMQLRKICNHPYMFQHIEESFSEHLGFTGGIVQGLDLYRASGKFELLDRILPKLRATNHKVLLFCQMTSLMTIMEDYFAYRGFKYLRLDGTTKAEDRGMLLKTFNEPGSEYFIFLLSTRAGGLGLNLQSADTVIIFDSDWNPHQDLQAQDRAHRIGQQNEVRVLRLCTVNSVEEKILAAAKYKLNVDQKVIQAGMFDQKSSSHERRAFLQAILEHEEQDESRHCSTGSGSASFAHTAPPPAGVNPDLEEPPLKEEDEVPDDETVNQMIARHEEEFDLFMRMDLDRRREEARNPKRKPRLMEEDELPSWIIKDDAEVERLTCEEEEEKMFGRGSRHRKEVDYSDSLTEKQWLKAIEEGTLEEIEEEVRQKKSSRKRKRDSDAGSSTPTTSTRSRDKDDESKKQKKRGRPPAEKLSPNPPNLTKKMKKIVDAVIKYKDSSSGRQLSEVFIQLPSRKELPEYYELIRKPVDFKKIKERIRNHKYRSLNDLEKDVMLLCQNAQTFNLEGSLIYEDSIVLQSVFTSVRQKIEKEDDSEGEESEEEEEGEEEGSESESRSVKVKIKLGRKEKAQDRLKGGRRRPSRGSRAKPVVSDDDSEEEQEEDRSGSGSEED
T1 sequence (P51531 whole entry): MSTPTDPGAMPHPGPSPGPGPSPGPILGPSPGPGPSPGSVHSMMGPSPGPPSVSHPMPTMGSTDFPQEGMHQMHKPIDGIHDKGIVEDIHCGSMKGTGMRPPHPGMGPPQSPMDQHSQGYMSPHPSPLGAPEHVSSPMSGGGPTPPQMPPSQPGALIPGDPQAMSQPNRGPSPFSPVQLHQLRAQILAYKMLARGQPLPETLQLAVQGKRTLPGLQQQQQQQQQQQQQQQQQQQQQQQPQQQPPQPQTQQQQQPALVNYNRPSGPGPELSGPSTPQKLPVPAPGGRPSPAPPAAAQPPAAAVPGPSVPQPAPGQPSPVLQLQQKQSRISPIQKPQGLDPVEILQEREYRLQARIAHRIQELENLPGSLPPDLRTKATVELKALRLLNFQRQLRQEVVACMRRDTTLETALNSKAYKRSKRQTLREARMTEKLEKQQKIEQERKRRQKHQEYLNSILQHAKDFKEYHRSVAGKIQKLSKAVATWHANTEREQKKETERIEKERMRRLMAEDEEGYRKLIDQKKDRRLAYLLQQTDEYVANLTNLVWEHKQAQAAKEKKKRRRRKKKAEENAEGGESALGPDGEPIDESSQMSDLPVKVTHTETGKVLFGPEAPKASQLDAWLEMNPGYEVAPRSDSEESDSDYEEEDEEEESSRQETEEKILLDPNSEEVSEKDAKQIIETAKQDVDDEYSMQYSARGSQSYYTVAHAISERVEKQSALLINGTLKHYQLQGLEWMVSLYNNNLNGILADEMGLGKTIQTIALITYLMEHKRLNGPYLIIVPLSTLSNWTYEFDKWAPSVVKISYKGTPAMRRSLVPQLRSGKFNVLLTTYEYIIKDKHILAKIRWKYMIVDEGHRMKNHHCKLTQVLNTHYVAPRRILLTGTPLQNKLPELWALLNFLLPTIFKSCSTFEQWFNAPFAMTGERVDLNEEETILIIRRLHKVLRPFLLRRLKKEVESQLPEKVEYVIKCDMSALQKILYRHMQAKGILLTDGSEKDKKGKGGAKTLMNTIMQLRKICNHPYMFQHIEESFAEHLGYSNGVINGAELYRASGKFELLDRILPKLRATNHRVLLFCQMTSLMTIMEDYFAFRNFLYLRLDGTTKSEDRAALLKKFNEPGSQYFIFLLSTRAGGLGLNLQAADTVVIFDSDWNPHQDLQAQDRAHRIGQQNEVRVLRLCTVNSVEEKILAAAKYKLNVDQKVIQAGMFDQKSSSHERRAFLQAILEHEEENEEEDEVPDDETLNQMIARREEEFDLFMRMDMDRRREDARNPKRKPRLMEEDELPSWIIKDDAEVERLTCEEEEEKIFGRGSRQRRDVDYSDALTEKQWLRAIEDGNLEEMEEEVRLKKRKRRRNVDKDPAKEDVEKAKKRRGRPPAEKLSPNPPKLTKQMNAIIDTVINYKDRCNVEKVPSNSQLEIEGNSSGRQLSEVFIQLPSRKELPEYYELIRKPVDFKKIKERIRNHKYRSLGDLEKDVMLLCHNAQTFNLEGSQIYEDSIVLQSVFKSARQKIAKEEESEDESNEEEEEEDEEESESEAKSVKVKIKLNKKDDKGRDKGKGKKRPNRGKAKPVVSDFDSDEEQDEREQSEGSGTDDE

As to `C#Cc1ccc(CNC(=O)[C@@H]2C[C@@H](O)CN2C(=O)[C@H](NC(=O)N2CC3(CC(N4CCC(c5cnc(N6CCc7[nH]c8nnc(-c9ccccc9O)cc8c7[C@H]6C)nc5)CC4)C3)C2)C(C)(C)CCN2CCN[C@H](C(=O)O)C2)cc1` [I-343], on SMARCA2 [1], the Dmax was under 50% and the DC50 was over 100 nM. Moreover, on SMARCA2 [2], the Dmax is under 50%, the DC50 is over 100 nM and the “Selectivity in MV411” value is “C (C (10-100 fold))”. At SMARCA4, the Dmax was under 50% and the DC50 was over 100 nM.
Turning to `C#Cc1ccc(CNC(=O)[C@@H]2C[C@@H](O)CN2C(=O)[C@@H](NC(=O)N2CCN(C[C@H]3CC[C@H](N4CCC(N5CCN6c7cc(-c8ccccc8O)nnc7NC[C@H]6C5)CC4)CC3)CC2)C(C)(C)C)cc1` [I-254], on SMARCA2 [1], the Dmax was 70 to 90% and the DC50 is 50 to 100 nM. Further, on SMARCA2 [2], the Dmax was in the range of 50 to 70%, the DC50 lay in the range of 10 to 100 nM and the “Selectivity in MV411” value was “B (B (>100-500 fold))”. On SMARCA4, the Dmax was under 50% and the DC50 was over 100 nM.
For the compound `C#Cc1ccc(CNC(=O)[C@@H]2C[C@@H](O)CN2C(=O)[C@@H](NC(=O)[C@H]2CCC3(CC2)C[C@H](N2CCC(N(C)CCN4CCN5c6cc(-c7ccccc7O)nnc6NC[C@H]5C4)CC2)C3)C(C)(C)C)cc1` (single isomer, unassigned) [I-247], at SMARCA2 [1], the “SMARCA2 MSD A549 degradation 24 h: Average Dmax %” value was “A (A (>90% degradation))” and the DC50 fell in the range of 50 to 100 nM. For the same compound, at SMARCA2 [2], the “SMARCA2 MSD MV411 degradation 24 h: average Dmax %” value is “B (B (>70-90% degradation))”, the DC50 was in the range of 1 to 10 nM and the “Selectivity in MV411” value was “C (C (10-100 fold))”. At SMARCA4, the “SMARCA4 MSD MV411 degradation 24 h: average Dmax %” value is listed as “C (C (50-70% degradation))” and the DC50 is over 100 nM.
As for `C#Cc1ccc(CNC(=O)[C@@H]2C[C@@H](O)CN2C(=O)[C@@H](NC(=O)N2CC3(CC(N4CCC(c5cnc(N6CCc7[nH]c8nnc(-c9ccccc9O)cc8c7[C@@H]6C)nc5)CC4)C3)C2)C(C)(C)C)cc1` [I-228], on SMARCA2 [1], the Dmax was over 90% and the DC50 was over 100 nM. Besides, on SMARCA2 [2], the Dmax fell in the range of 70 to 90%, the DC50 lay in the range of 10 to 100 nM and the “Selectivity in MV411” value is given as “D (D (<10 fold))”. Also, at SMARCA4, the greatest degradation seen (Dmax) was over 90% and the DC50 is over 100 nM.
On to `C#Cc1ccc(CNC(=O)[C@@H]2C[C@@H](O)CN2C(=O)[C@@H](NC(=O)N2CC3(CC(N4CCC(c5cnc(N6CCc7[nH]c8nnc(-c9ccccc9O)cc8c7[C@H]6C)nc5)CC4)C3)C2)C(C)(C)CCN2CCNCC2)cc1` [I-340], for which, at SMARCA2 [1], the Dmax was 50 to 70% and the DC50 is over 100 nM. Further, on SMARCA2 [2], the maximal degradation (Dmax) was under 50%, the DC50 is over 100 nM and the “Selectivity in MV411” value was “C (C (10-100 fold))”. Also, on SMARCA4, the Dmax was under 50% and the DC50 was over 100 nM.
As to `C#Cc1ccc([C@H](C)NC(=O)[C@@H]2C[C@@H](O)CN2C(=O)[C@@H](NC(=O)N2CC3(CC(N4CCC(c5cnc(N6CCc7[nH]c8nnc(-c9ccccc9O)cc8c7[C@H]6CO)nc5)CC4)C3)C2)C(C)(C)C)cc1` [I-321], on SMARCA2 [1], the Dmax is over 90% and the DC50 is 10 to 50 nM. On SMARCA2 [2], the Dmax lay in the range of 70 to 90%, the DC50 is 1 to 10 nM and the “Selectivity in MV411” value is on record as “A (A (>500 fold))”. For the same compound, at SMARCA4, the Dmax is under 50% and the half-maximal degradation concentration (DC50) was over 100 nM.
As to `Cc1ncsc1-c1ccc(CNC(=O)[C@@H]2C[C@@H](O)CN2C(=O)[C@@H](NC(=O)[C@H]2CC3(C2)C[C@H](N2CCC(c4ccnc(N5CCN6c7cc(-c8ccccc8O)nnc7NC[C@@H]6C5)n4)CC2)C3)C(C)(C)C)cc1` (single isomer, unassigned) [I-4], on SMARCA2 [1], the “SMARCA2 MSD A549 degradation 24 h: Average Dmax %” value was “C (C (50-70% degradation))” and the DC50 is over 100 nM. In addition, on SMARCA2 [2], the “SMARCA2 MSD MV411 degradation 24 h: average Dmax %” value was “B (B (>70-90% degradation))”, the DC50 was 1 to 10 nM and the “Selectivity in MV411” value was “B (B (>100-500 fold))”. On SMARCA4, the “SMARCA4 MSD MV411 degradation 24 h: average Dmax %” value is recorded as “D (D (<50% degradation))” and the DC50 is over 100 nM.
